Test results: EP4506005A1, “JAK-INHIBITOR FOR THE TREATMENT OF TEN, SJS AND SJS/TEN OVERLAP” (Max-Planck-Gesellschaft zur Förderung der Wissenschaften …, priority 2023, dated 2025)
Entries after “also recorded” stand apart in the source; their conditions may differ.

Assays:
[1] = test system: primary keratinocytes; assay: Live-cell imaging co-culture assay of patient-derived keratinocytes with matched PBMCs
Description: Concurrently, patient-matched PBMCs were isolated and activated using CD3/28. After five days, the keratinocytes were fluorescently labeled and co-cultured with activated or resting PBMCs. A fluorescent DNA-binding dye was introduced to identify cells with compromised membrane integrity, in order to visualize, track and quantify the cytotoxic action of activated PBMCs towards keratinocytes using live-cell imaging.
PBMCs were isolated using Ficol according to standard protocol. Cells were frozen in liquid nitrogen until further usage.
Patient PBMCs (200'000 / well / 200 µl) were stimulated in U-shape 96-well plates in the presence or absence of CD3/28 (Gibco Dynabeads, #11161D) at a ratio of 1:1, in X-VIVO 15 (Lonza, #881026) for 5 days at 37 °C / 5% CO2. On day 4 of PBMC stimulation, hair-follicle derived keratinocytes from the same patient were plated on Collagen-I coated 96-well plates at a density of 5'000 - 10000 / well (depending on the proliferation rate, patient specific). On day 5 of PBMC stimulation, keratinocytes were fluorescently labeled (Celltracker Red; Invitrogen #C34552) according to the manufacturer's recommendation. Activated or non-activated ("resting") PBMCs were then added to the keratinocytes at a ratio of 1:1, after magnetic removal of CD3/28 beads where necessary. Tofacitinib (CST, #14703) or control (DMSO) was added in the indicated concentration as well as Celltox Green (Promega, G8731, 1:8000 final dilution) to reach a final volume of 200 µl per well. Every 2 hours images were acquired using a live cell analysis system (Incucyte Sx3, Sartorius) for 72 hours at 37 °C / 5% CO2. Quantification of dead keratinocytes (Celltox Green+ / Celltracker Red+) was performed using the proprietary analysis software (Incucyte, Sartorius).

[2] = test system: DRESS; details: earlier report; cited from earlier work
[3] = test system: mouse model of TEN; assay: Smac mimetic TEN mouse model
[4] = cited from earlier work

Compound: C[C@@H]1CCN(C(=O)CC#N)C[C@@H]1N(C)c1ncnc2[nH]ccc12 [Tofacitinib]
- cell death ([1]; Tofacitinib in combination with resting (non-activated) PBMCs): no indications of increased cell death
- keratinocyte cytotoxicity ([1]; co-culture of primary keratinocytes with CD3/28 activated PBMCs from the same TEN patient, ratio 1:1, Tofacitinib 50 or 5 (nmol/nM), imaging every 2h for 72 hours, Celltox Green positive keratinocytes): reduced keratinocyte-directed cytotoxicity; also recorded: able to dampen the keratinocyte mediated cytotoxicity; also recorded: ameliorates T-cell mediated keratinocyte cytotoxicity; also recorded: dose-dependent inhibition of keratinocyte cytotoxicity
- keratinocyte cell death ([1]; keratinocytes exposed to Tofacitinib alone): did not induce keratinocyte cell death
- therapeutic intervention in DRESS [2]: successful
- clinical and histological disease severity ([3]; oral administration): ameliorated clinical and histological disease severity
- macroscopic disease severity (clinical assessment score: Nikolsky sign, edema, rubor) ([3]; oral gavage twice daily, Tofacitinib 30 mg/kg or Baricitinib 10 mg/kg, day 1 and 3 after s.c. smac mimetic injection): markedly reduced macroscopic disease severity
- peak plasma concentrations achieved (time after administration) [4]: 30 to 60 min
